± gives the standard deviation of the averaged measurements.
Experiments:
Test in all cases: level (log10 ratio to DMSO vehicle control); higher = higher biomarker level / cell amount than vehicle control
Settings in all cases: in DMSO
[1] = compound: O=C(O)C(F)(F)C(F)(F)C(F)(F)C(F)(F)C(F)(F)C(F)(F)C(F)(F)C(F)(F)C(F)(F)C(F)(F)C(F)(F)C(F)(F)C(F)(F)F [Perfluorotetradecanoic acid]
Description: (§1)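 BioMAP Diversity Plus panel of 12 human primary cell co-culture systems (3C, 4H, LPS, SAg, BT, BF4T, BE3C, CASM3C, HDF3CGF, KF3CT, MyoF, Mphg). Compounds were added 1 h before stimulation and left for 24 h (MyoF 48 h; BT 72 h for soluble read-outs or 6 d for IgG). Biomarkers were read by ELISA, cytotoxicity by SRB, PBMC viability and proliferation by Alamar Blue. Each well value was divided by the mean of 8 DMSO control wells on the same plate and log10 transformed; duplicate blinded samples were tested at 4 concentrations.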

[2] = compound: CC(C)(C)C(=O)CC(=O)C(F)(F)C(F)(F)C(F)(F)F [(Heptafluorobutanoyl)pivaloylmethane]
Description: as §1

Perfluorooctanamide = compound: NC(=O)C(F)(F)C(F)(F)C(F)(F)C(F)(F)C(F)(F)C(F)(F)C(F)(F)F [Perfluorooctanamide]
Description: as §1

| Test System | level (log10) ([1]; 6700 nM) | level (log10) ([1]; 20000 nM) | level (log10) ([2]; 6700 nM) | level (log10) ([2]; 20000 nM) | level (log10) ([2]; 60000 nM) | level (log10) (Perfluorooctanamide; 6700 nM) | level (log10) (Perfluorooctanamide; 20000 nM) | level (log10) (Perfluorooctanamide; 60000 nM) |
| --- | --- | --- | --- | --- | --- | --- | --- | --- |
| 3C:CCL2/MCP-1 | 0.0125 ± 0.012 | 0.0085 ± 0.018 | -0.0035 ± 0.0021 | -0.007 ± 0.018 | 0.0015 ± 0.043 | 0.0085 ± 0.028 | -0.01 ± 0.0014 | 0.0105 ± 0.054 |
| 3C:CD54/ICAM-1 | -0.0005 ± 0.0078 | -0.0045 ± 0.013 | -0.0015 ± 0.019 | -0.0095 ± 0.005 | 0.03 ± 0.011 | -0.012 ± 0.011 | -0.003 ± 0.013 | 0.0335 ± 0.012 |
| 3C:CD62E/E-Selectin | -0.0245 ± 0.029 | -0.0105 ± 0.00071 | -0.0155 ± 0.0092 | -0.022 ± 0.0099 | -0.003 ± 0.017 | -0.009 ± 0.013 | -0.0115 ± 0.0078 | 0.004 ± 0.025 |
| 3C:CD106/VCAM-1 | -0.014 ± 0.016 | -0.0155 ± 0.0078 | 0.0015 ± 0.00071 | -0.0045 ± 0.026 | 0.019 ± 0.018 | -0.023 ± 0.0028 | -0.005 ± 0.0099 | -0.004 ± 0.0057 |
| 3C:CD141/Thrombomodulin | -0.0165 ± 0.036 | -0.024 ± 0.042 | -0.0095 ± 0.015 | 0.024 ± 0.011 | 0.187 ± 0.014 | -0.006 ± 0.02 | -0.0115 ± 0.022 | -0.0185 ± 0.039 |
| 3C:CD142/Tissue Factor | 0.0275 ± 0.0078 | 0.0665 ± 0.018 | -0.0205 ± 0.015 | -0.0235 ± 0.005 | -0.053 ± 0.014 | 0.029 ± 0.033 | 0.009 ± 0.013 | 0.0245 ± 0.06 |
| BE3C:Keratin 8/18 | -0.004 ± 0.03 | -0.011 ± 0.045 | 0.009 ± 0.0014 | 0.009 ± 0.0057 | 0.001 ± 0.025 | -0.001 ± 0.0085 | -0.009 ± 0.0028 | -0.0105 ± 0.0078 |
| BE3C:MMP-1 | 0.015 ± 0.025 | 0.0505 ± 0.059 | -0.0025 ± 0.0035 | -0.019 ± 0.013 | 0.0095 ± 0.033 | 0.0075 ± 0.0078 | 0.014 ± 0.0071 | 0.022 ± 0.018 |
| BE3C:MMP-9 | -0.033 ± 0.071 | -0.04 ± 0.065 | -0.0145 ± 0.018 | 0.004 ± 0.0014 | -0.032 ± 0.04 | -0.0085 ± 0.0064 | 0.002 ± 0.0028 | 0.0015 ± 0.013 |
| BE3C:PAI-I | 0.007 ± 0.058 | -0.0175 ± 0.064 | -0.028 ± 0.068 | -0.009 ± 0.083 | -0.0145 ± 0.1 | -0.01 ± 0.016 | 0.016 ± 0.0085 | 0.022 ± 0.0057 |
| BE3C:SRB | -0.005 ± 0.0057 | 0.0035 ± 0.012 | -0.0035 ± 0.0035 | -0.0035 ± 0.00071 | -0.0075 ± 0.019 | -0.005 ± 0.0057 | -0.003 ± 0.0057 | 0.0005 ± 0.0035 |
| BE3C:tPA | 0.04 ± 0.075 | 0.0035 ± 0.06 | -0.026 ± 0.0071 | -0.0035 ± 0.025 | -0.0275 ± 0.032 | 0.008 ± 0.018 | 0.0385 ± 0.011 | 0.049 ± 0.05 |
| BE3C:uPA | -0.0075 ± 0.05 | -0.0085 ± 0.056 | 0.0025 ± 0.018 | -0.0035 ± 0.023 | 0.002 ± 0.03 | 0.0025 ± 0.0035 | 0.0005 ± 0.005 | 0.0135 ± 0.0021 |
| CASM3C:CCL2/MCP-1 | -0.0615 ± 0.036 | -0.03 ± 0.021 | -0.008 ± 0.017 | -0.0025 ± 0.021 | -0.0075 ± 0.0092 | -0.013 ± 0.03 | -0.013 ± 0.014 | -0.014 ± 0.0099 |
| CASM3C:CD87/uPAR | -0.0305 ± 0.057 | -0.0375 ± 0.026 | 0.003 ± 0.02 | -0.0235 ± 0.0064 | -0.014 ± 0.023 | -0.009 ± 0.0014 | -0.001 ± 0.024 | 0.0045 ± 0.0092 |
| CASM3C:CD106/VCAM-1 | -0.023 ± 0.041 | -0.0065 ± 0.073 | -0.006 ± 0.014 | -0.004 ± 0.021 | -0.002 ± 0.03 | -0.0245 ± 0.005 | -0.014 ± 0.028 | -0.004 ± 0.027 |
| CASM3C:CD141/Thrombomodulin | 0.0555 ± 0.064 | 0.056 ± 0.044 | -0.008 ± 0.033 | -0.005 ± 0.018 | -0.038 ± 0.0042 | -0.0225 ± 0.021 | 0.0155 ± 0.0021 | 0.015 ± 0.0071 |
| CASM3C:CD142/Tissue Factor | -0.005 ± 0.038 | -0.002 ± 0.041 | -0.017 ± 0.0057 | -0.0275 ± 0.0035 | -0.037 ± 0.027 | -0.0085 ± 0.046 | -0.0095 ± 0.0064 | -0.003 ± 0.051 |

| Test System | level (log10) ([1]; 6700 nM) | level (log10) ([1]; 20000 nM) | level (log10) ([2]; 6700 nM) | level (log10) ([2]; 20000 nM) | level (log10) ([2]; 60000 nM) | level (log10) (Perfluorooctanamide; 6700 nM) | level (log10) (Perfluorooctanamide; 20000 nM) | level (log10) (Perfluorooctanamide; 60000 nM) |
| --- | --- | --- | --- | --- | --- | --- | --- | --- |
| CASM3C:CXCL8/IL-8 | 0.012 ± 0.016 | 0.016 ± 0.028 | -0.006 ± 0.0042 | -0.018 ± 0.0028 | -0.0045 ± 0.025 | 0.013 ± 0.025 | 0.013 ± 0.016 | 0.044 ± 0.014 |
| CASM3C:CXCL9/MIG | -0.0375 ± 0.042 | 0.0295 ± 0.057 | -0.004 ± 0.0014 | -0.0085 ± 0.00071 | 0.006 ± 0.011 | -0.0205 ± 0.037 | 0.0135 ± 0.0021 | 0.0365 ± 0.032 |
| CASM3C:HLA-DR | -0.0195 ± 0.0078 | -0.022 ± 0.073 | 0.011 ± 0.0014 | 0.0005 ± 0.0092 | 0.0255 ± 0.0035 | 0.003 ± 0.041 | 0.0125 ± 0.0092 | 0.0005 ± 0.011 |
| CASM3C:IL-6 | 0.002 ± 0.051 | 0.0135 ± 0.094 | -0.0155 ± 0.0064 | -0.0375 ± 0.018 | -0.0145 ± 0.028 | 0.0435 ± 0.036 | -0.0225 ± 0.015 | 0.008 ± 0.023 |
| CASM3C:LDLR | -0.0135 ± 0.013 | -0.028 ± 0.014 | -0.004 ± 0.017 | -0.0085 ± 0.0035 | -0.0075 ± 0.018 | -0.0175 ± 0.0035 | 0.0135 ± 0.026 | 0.031 ± 0.027 |
| CASM3C:M-CSF | 0.006 ± 0.025 | -0.0065 ± 0.043 | 0.002 ± 0.017 | -0.0165 ± 0.013 | -0.016 ± 0.014 | -0.0055 ± 0.04 | 0.0035 ± 0.03 | 0.027 ± 0.048 |
| CASM3C:PAI-I | 0.007 ± 0.0028 | 0.013 ± 0.0014 | -0.004 ± 0.0028 | -0.0035 ± 0.0064 | 0.003 ± 0.0099 | -0.0015 ± 0.0064 | 0.004 ± 0.0057 | -0.0015 ± 0.016 |
| CASM3C:Proliferation | 0.0075 ± 0.028 | -0.018 ± 0.0057 | -0.032 ± 0.03 | 0.0195 ± 0.0092 | -0.017 ± 0.037 | -0.0135 ± 0.005 | -0.036 ± 0.027 | -0.0415 ± 0.015 |
| CASM3C:SRB | -0.011 ± 0.0028 | 0.0025 ± 0.0092 | 0.01 ± 0.0014 | -0.002 ± 0.0014 | 0.0035 ± 0.00071 | 0 ± 0.0071 | -0.002 ± 0.0014 | -0.003 ± 0.0014 |
| CASM3C:Serum Amyloid A | 0.033 ± 0.048 | -0.007 ± 0.014 | 0.014 ± 0.035 | 0.001 ± 0.064 | -0.009 ± 0.024 | -0.034 ± 0.044 | -0.0465 ± 0.069 | -0.062 ± 0.051 |
| HDF3CGF:CCL2/MCP-1 | 0.0235 ± 0.016 | 0.0285 ± 0.029 | -0.0285 ± 0.016 | 0.027 | -0.0065 ± 0.025 | -0.023 ± 0.0057 | -0.0145 ± 0.022 | -0.033 ± 0.0014 |
| HDF3CGF:CD54/ICAM-1 | -0.0015 ± 0.029 | -0.023 ± 0.033 | 0 ± 0.0057 | -0.0075 ± 0.013 | 0.0065 ± 0.00071 | -0.009 | 0.002 ± 0.0085 | -0.02 ± 0.016 |
| HDF3CGF:CD106/VCAM-1 | -0.021 ± 0.0099 | -0.122 ± 0.012 | 0.0085 ± 0.023 | 0.032 ± 0.0071 | -0.0925 ± 0.054 | -0.015 ± 0.0099 | 0.0005 ± 0.005 | -0.016 ± 0.0085 |
| HDF3CGF:CXCL8/IL-8 | -0.0045 ± 0.012 | 0.008 ± 0.0085 | 0.0025 ± 0.0035 | -0.001 ± 0.0099 | -0.0005 ± 0.0035 | -0.0075 ± 0.0021 | -0.0055 ± 0.012 | -0.005 ± 0.0014 |
| HDF3CGF:CXCL9/MIG | 0.0075 ± 0.025 | -0.001 ± 0.0042 | 0.0025 ± 0.012 | 0 ± 0.02 | -0.025 ± 0.033 | -0.014 ± 0.013 | 0.0115 ± 0.012 | 0.0415 ± 0.0078 |
| HDF3CGF:CXCL10/IP-10 | 0.022 ± 0.0099 | -0.0585 ± 0.1 | -0.0195 ± 0.0078 | -0.0105 ± 0.012 | -0.076 ± 0.023 | -0.0165 ± 0.019 | 0.003 ± 0.0014 | 0.0305 ± 0.011 |
| HDF3CGF:CXCL11/I-TAC | 0.0165 ± 0.015 | -0.0705 ± 0.08 | 0.012 ± 0.014 | -0.0155 ± 0.005 | -0.06 ± 0.013 | -0.006 ± 0.0099 | -0.0185 ± 0.016 | -0.016 ± 0.0057 |

Source: the supplement of paper PMC10331698
